Laboratory results taken from ChEMBL document CHEMBL5696441 (Nat Chem Biol, 2011).

Tests used:
[1] = biological target: Tyrosine-protein kinase BTK (Homo sapiens) (UniProt Q06187); experiment: Inhibition of human BTK assessed as residual activity at 1 uM using PolyEY as substrate in presence of 33P-ATP by ProQinase assay relative to control
[2] = biological target: Dual specificity protein kinase CLK4 (Homo sapiens) (UniProt Q9HAZ1); experiment: Inhibition of CLK4 (unknown origin) assessed as remaining activity at 1 uM by Kinome scan method relative to control
[3] = biological target: Wee1-like protein kinase (Homo sapiens) (UniProt P30291); experiment: Inhibition of human WEE1 assessed as residual activity at 1 uM using poly(Ala,Glu,Lys,Tyr)6:2:5:1 as substrate in presence of 33P-ATP by ProQinase assay relative to control
[4] = biological target: Activin receptor type-1-like (Homo sapiens) (UniProt P37023); experiment: Inhibition of human ACVRL1 assessed as residual activity at 1 uM using Casein as substrate in presence of 33P-ATP by ProQinase assay relative to control
[5] = biological target: Ribosomal protein S6 kinase beta-1 (Homo sapiens) (UniProt P23443); experiment: Inhibition of human S6K1 assessed as residual activity at 1 uM using RBER-GSK3(14-27) as substrate in presence of 33P-ATP by ProQinase assay relative to control
Chain of Ribosomal protein S6 kinase beta-1 (Homo sapiens) (P23443 whole entry, looked up): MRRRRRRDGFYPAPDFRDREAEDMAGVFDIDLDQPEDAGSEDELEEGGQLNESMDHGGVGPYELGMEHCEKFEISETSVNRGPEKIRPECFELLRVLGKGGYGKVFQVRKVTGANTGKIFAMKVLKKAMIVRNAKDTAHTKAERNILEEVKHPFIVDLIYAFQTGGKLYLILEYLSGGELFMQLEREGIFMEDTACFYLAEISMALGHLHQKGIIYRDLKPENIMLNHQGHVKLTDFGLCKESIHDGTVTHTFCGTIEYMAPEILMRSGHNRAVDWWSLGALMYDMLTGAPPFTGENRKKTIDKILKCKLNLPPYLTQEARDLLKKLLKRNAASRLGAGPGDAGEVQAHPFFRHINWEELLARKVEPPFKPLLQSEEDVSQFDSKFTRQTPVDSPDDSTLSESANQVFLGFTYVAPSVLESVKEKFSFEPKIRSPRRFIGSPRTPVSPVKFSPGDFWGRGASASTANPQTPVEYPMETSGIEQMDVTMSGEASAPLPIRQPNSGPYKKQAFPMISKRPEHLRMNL

[6] = biological target: Tyrosine-protein kinase ZAP-70 (Homo sapiens) (UniProt P43403); experiment: Inhibition of human ZAP70 assessed as residual activity at 1 uM using polyEY as substrate in presence of 33P-ATP by ProQinase assay relative to control
[7] = biological target: Mast/stem cell growth factor receptor Kit (Homo sapiens) (UniProt P10721); experiment: Inhibition of KIT (unknown origin) assessed as remaining activity at 1 uM by Kinome scan method relative to control
[8] = biological target: Ribosomal protein S6 kinase alpha-2 (Homo sapiens) (UniProt Q15349); experiment: Inhibition of N-terminal kinase domain RPS6KA2 (unknown origin) assessed as remaining activity at 1 uM by Kinome scan method relative to control
[9] = biological target: Dual specificity protein kinase TTK (Homo sapiens) (UniProt P33981); experiment: Inhibition of TTK (unknown origin) assessed as remaining activity at 1 uM by Kinome scan method relative to control
Chain of Dual specificity protein kinase TTK (Homo sapiens) (P33981 whole entry): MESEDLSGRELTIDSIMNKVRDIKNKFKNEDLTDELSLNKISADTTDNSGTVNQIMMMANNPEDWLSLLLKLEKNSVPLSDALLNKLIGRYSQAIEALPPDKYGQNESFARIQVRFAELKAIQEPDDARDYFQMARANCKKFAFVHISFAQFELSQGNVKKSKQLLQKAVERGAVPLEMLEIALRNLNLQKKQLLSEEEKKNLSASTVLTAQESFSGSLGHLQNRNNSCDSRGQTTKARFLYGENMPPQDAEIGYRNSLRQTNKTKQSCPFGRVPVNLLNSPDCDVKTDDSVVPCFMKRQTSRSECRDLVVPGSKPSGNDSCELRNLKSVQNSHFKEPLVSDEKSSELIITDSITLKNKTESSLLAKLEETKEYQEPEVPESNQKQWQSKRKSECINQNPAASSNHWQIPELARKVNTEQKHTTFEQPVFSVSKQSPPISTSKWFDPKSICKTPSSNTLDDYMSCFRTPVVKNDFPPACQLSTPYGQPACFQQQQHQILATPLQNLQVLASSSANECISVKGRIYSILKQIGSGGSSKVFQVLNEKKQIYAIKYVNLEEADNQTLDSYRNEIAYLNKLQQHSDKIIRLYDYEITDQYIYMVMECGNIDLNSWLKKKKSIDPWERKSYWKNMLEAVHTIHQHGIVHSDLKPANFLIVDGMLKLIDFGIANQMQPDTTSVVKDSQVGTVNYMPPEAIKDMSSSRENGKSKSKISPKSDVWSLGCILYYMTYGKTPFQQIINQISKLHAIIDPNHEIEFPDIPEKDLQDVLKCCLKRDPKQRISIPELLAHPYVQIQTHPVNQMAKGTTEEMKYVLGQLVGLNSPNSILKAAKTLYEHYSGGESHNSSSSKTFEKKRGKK

[10] = test system: Hepatocyte growth factor receptor (Homo sapiens), P08581 [D1228N]; experiment: Inhibition of human MET D1228N mutant assessed as residual activity at 1 uM using poly(Ala,Glu,Lys,Tyr)6:2:5:1 as substrate in presence of 33P-ATP by ProQinase assay relative to control
[11] = test system: Epidermal growth factor receptor (Homo sapiens), P00533 [G719S]; experiment: Inhibition of human EGFR G719S mutant assessed as residual activity at 1 uM using PolyEY as substrate in presence of 33P-ATP by ProQinase assay relative to control
[12] = test system: Phosphatidylinositol 4,5-bisphosphate 3-kinase catalytic subunit alpha isoform (Homo sapiens), P42336 [H1047Y]; experiment: Inhibition of PIK3CA H1047Y mutant (unknown origin) assessed as remaining activity at 1 uM by Kinome scan method relative to control
[13] = biological target: BDNF/NT-3 growth factors receptor (Homo sapiens) (UniProt Q16620); experiment: Inhibition of human TRKB assessed as residual activity at 1 uM using polyEY as substrate in presence of 33P-ATP by ProQinase assay relative to control
[14] = test system: Platelet-derived growth factor receptor alpha (Homo sapiens), P16234 [V561D]; experiment: Inhibition of human PDGFRalpha V561D mutant assessed as residual activity at 1 uM using PolyEY as substrate in presence of 33P-ATP by ProQinase assay relative to control
[15] = biological target: Ephrin type-A receptor 7 (Homo sapiens) (UniProt Q15375); experiment: Inhibition of human EPHA7 assessed as residual activity at 1 uM using polyEy as substrate in presence of 33P-ATP by ProQinase assay relative to control
[16] = biological target: Ephrin type-A receptor 4 (Homo sapiens) (UniProt P54764); experiment: Inhibition of human EPHA4 assessed as residual activity at 1 uM using polyEY as substrate in presence of 33P-ATP by ProQinase assay relative to control
[17] = biological target: Insulin-like growth factor 1 receptor (Homo sapiens) (UniProt P08069); experiment: Inhibition of human IGF1R assessed as residual activity at 1 uM using polyEY as substrate in presence of 33P-ATP by ProQinase assay relative to control
Chain of Insulin-like growth factor 1 receptor (Homo sapiens) (P08069 31-736 limits assumed): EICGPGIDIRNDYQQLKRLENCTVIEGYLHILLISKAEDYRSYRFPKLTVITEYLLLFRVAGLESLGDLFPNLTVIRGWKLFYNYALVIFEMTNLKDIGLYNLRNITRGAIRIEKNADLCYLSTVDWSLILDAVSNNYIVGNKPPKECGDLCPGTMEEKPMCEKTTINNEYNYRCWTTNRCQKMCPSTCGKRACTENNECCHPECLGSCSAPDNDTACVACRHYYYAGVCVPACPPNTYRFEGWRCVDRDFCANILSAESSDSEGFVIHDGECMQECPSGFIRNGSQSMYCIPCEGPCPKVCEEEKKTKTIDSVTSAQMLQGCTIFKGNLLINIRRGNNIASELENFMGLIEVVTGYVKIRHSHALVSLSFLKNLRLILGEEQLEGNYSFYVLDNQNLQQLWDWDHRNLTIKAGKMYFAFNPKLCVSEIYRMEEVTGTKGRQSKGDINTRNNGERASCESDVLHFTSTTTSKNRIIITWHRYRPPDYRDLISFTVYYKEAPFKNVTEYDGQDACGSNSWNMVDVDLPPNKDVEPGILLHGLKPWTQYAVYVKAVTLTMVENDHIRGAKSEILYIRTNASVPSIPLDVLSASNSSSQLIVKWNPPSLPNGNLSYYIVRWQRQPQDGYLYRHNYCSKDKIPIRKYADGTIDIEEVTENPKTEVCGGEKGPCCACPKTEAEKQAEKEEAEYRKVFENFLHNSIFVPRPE
Chain of Insulin-like growth factor 1 receptor (Homo sapiens) (P08069 741-1367 limits assumed): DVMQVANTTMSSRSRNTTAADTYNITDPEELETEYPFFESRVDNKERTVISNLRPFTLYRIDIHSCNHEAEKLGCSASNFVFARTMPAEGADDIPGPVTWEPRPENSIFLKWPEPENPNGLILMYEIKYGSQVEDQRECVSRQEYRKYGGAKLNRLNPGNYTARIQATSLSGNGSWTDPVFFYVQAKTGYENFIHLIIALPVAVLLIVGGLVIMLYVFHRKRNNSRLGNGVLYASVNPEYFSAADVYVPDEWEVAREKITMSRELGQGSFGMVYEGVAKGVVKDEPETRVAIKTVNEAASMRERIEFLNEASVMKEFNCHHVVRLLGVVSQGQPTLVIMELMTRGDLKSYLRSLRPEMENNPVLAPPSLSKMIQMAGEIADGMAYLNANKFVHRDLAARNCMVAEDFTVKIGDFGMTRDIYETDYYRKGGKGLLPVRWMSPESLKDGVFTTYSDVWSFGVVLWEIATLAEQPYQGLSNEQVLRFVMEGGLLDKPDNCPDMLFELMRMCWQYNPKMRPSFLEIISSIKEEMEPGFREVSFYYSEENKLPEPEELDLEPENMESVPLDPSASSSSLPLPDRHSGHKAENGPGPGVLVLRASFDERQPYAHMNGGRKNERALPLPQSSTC

[18] = test system: Fibroblast growth factor receptor 3 (Homo sapiens), P22607 [G697C]; experiment: Inhibition of FGFR3 G697C mutant (unknown origin) assessed as remaining activity at 1 uM by Kinome scan method relative to control
Chain of Fibroblast growth factor receptor 3 (Homo sapiens), P22607 [G697C] (P22607 whole entry G697C): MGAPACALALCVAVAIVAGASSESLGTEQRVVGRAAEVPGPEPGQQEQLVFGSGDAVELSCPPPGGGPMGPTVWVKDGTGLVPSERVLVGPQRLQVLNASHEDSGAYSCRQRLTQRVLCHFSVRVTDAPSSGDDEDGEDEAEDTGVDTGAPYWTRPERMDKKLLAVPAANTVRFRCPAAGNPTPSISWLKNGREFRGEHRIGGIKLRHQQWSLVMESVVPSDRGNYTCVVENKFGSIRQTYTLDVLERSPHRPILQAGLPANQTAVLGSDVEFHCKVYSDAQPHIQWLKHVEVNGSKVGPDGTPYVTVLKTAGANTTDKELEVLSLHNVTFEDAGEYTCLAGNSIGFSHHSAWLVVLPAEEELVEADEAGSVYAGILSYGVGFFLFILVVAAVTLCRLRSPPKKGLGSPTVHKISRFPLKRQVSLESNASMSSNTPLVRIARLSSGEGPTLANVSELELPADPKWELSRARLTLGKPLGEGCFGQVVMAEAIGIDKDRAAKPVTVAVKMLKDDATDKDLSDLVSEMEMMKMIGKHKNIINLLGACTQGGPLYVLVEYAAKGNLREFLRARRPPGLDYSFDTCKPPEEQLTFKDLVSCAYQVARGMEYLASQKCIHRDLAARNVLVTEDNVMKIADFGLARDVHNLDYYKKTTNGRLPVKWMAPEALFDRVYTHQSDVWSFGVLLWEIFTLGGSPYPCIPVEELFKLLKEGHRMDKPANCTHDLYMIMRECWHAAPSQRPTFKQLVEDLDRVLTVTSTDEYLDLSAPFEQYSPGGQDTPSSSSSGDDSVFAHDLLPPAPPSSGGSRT

[19] = test system: Proto-oncogene tyrosine-protein kinase receptor Ret (Homo sapiens), P07949 [V804M]; experiment: Inhibition of RET V804M (unknown origin) assessed as remaining activity at 1 uM by Kinome scan method relative to control
[20] = biological target: Protein kinase C alpha type (Homo sapiens) (UniProt P17252); experiment: Inhibition of human PKCalpha assessed as residual activity at 1 uM using 3xChocktide-PKC(19-31) as substrate in presence of 33P-ATP by ProQinase assay relative to control
[21] = biological target: SRSF protein kinase 3 (Homo sapiens) (UniProt Q9UPE1); experiment: Inhibition of human STK23 assessed as residual activity at 1 uM using RBER-CHKtide as substrate in presence of 33P-ATP by ProQinase assay relative to control
Chain of SRSF protein kinase 3 (Homo sapiens) (Q9UPE1 whole entry): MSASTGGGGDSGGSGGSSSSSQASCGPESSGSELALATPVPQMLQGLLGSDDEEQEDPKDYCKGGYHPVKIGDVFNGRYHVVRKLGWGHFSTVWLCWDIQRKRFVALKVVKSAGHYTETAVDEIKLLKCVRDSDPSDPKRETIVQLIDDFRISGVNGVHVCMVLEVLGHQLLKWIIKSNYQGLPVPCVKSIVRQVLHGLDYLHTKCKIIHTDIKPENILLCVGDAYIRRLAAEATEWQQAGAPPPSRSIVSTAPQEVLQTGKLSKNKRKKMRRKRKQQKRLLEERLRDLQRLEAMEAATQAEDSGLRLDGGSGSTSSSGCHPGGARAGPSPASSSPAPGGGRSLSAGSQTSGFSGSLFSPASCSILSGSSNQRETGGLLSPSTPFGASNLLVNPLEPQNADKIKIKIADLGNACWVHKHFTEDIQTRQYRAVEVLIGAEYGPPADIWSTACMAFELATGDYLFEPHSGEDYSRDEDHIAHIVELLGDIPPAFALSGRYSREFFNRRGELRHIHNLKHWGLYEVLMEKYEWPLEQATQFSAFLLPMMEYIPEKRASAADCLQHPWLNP

Chain of Tyrosine-protein kinase BTK (Homo sapiens) (Q06187 whole entry): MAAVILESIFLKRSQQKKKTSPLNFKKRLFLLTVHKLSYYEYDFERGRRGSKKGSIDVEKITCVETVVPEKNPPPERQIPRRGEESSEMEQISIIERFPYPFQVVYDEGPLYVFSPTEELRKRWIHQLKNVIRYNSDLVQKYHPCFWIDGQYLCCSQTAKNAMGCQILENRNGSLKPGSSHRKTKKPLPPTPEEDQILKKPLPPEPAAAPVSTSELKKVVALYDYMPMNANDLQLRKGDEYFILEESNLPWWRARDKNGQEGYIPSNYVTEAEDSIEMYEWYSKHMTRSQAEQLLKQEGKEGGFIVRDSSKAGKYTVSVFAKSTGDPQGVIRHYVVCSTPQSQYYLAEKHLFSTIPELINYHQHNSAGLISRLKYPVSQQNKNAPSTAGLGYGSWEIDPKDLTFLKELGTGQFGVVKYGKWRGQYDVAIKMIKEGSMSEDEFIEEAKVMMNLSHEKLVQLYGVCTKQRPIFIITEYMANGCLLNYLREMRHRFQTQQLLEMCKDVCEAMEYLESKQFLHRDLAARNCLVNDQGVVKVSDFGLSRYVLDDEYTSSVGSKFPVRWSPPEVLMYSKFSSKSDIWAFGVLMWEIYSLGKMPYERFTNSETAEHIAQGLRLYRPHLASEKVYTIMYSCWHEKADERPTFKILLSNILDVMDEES

O=C1c2ccc(Nc3ccc(F)cc3F)cc2CCc2ccc(OC[C@H](O)CO)cc21 [Skepinone-L]
Activity [1]: 100%
Activity [2]: 100%
Activity [3]: 88%
Activity [4]: 105%
Activity [5]: 85%
Activity [6]: 98%
Activity [7]: 93%
Activity [8]: 100%
Activity [9]: 100%
Activity [10]: 95%
Activity [11]: 96%
Activity [12]: 100%
Activity [13]: 77%
Activity [14]: 91%
Activity [15]: 109%
Activity [16]: 93%
Activity [17]: 98%
Activity [18]: 87%
Activity [19]: 95%
Activity [20]: 96%
Activity [21]: 96%
